Data reported in US20240252454A1, “COMPOSITION COMPRISING AN INHIBITOR OF MITOCHONDRIAL TRANSCRIPTION” (LEAD DISCOVERY CENTER GMBH, priority 2021, published 2024).

Tests used:
Test in all cases: SRB assay, IMT combined with inhibitor
Assay type in all cases: cell-based
MIAPACA2 = MIAPACA2 (pancreas); concentration series of the labelled inhibitor + fixed concentration of IMT (3S)-1-[(2R)-2-[4-(2-chloro-4-fluoro-phenyl)-2-oxo-chromen-7-yl]oxypropanoyl]piperidine-3-carboxylic acid (Table 3: 40 nM, 120 h); negative=synergistic, positive=antagonistic
Method in brief: (§1)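 Cells are grown at near-physiological glucose (5 mM) and given a dilution series of a MAPK signalling pathway SOC plus 40 nM (3S)-1-[(2R)-2-[4-(2-chloro-4-fluoro-phenyl)-2-oxo-chromen-7-yl]oxypropanoyl]piperidine-3-carboxylic acid held constant. After 120 h, biomass is quantified with sulforhodamine B.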

HEPG2 = HEPG2 (liver); concentration series of the labelled inhibitor + fixed concentration of IMT (3S)-1-[(2R)-2-[4-(2-chloro-4-fluoro-phenyl)-2-oxo-chromen-7-yl]oxypropanoyl]piperidine-3-carboxylic acid (Table 3: 40 nM, 120 h); negative=synergistic, positive=antagonistic
Method in brief: as §1

A549 = A549 (lung); concentration series of the labelled inhibitor + fixed concentration of IMT (3S)-1-[(2R)-2-[4-(2-chloro-4-fluoro-phenyl)-2-oxo-chromen-7-yl]oxypropanoyl]piperidine-3-carboxylic acid (Table 3: 40 nM, 120 h); negative=synergistic, positive=antagonistic
Method in brief: as §1

MHHES1 = MHHES1 (bone); concentration series of the labelled inhibitor + fixed concentration of IMT (3S)-1-[(2R)-2-[4-(2-chloro-4-fluoro-phenyl)-2-oxo-chromen-7-yl]oxypropanoyl]piperidine-3-carboxylic acid (Table 3: 40 nM, 120 h); negative=synergistic, positive=antagonistic
Method in brief: as §1

PANC1 = PANC1 (pancreas); concentration series of the labelled inhibitor + fixed concentration of IMT (3S)-1-[(2R)-2-[4-(2-chloro-4-fluoro-phenyl)-2-oxo-chromen-7-yl]oxypropanoyl]piperidine-3-carboxylic acid (Table 3: 40 nM, 120 h); negative=synergistic, positive=antagonistic
Method in brief: as §1

SKOV3 = SKOV3 (ovary); concentration series of the labelled inhibitor + fixed concentration of IMT (3S)-1-[(2R)-2-[4-(2-chloro-4-fluoro-phenyl)-2-oxo-chromen-7-yl]oxypropanoyl]piperidine-3-carboxylic acid (Table 3: 40 nM, 120 h); negative=synergistic, positive=antagonistic
Method in brief: as §1

A673 = A673 (muscle); concentration series of the labelled inhibitor + fixed concentration of IMT (3S)-1-[(2R)-2-[4-(2-chloro-4-fluoro-phenyl)-2-oxo-chromen-7-yl]oxypropanoyl]piperidine-3-carboxylic acid (Table 3: 40 nM, 120 h); negative=synergistic, positive=antagonistic
Method in brief: as §1

U87MG = U87MG (brain); concentration series of the labelled inhibitor + fixed concentration of IMT (3S)-1-[(2R)-2-[4-(2-chloro-4-fluoro-phenyl)-2-oxo-chromen-7-yl]oxypropanoyl]piperidine-3-carboxylic acid (Table 3: 40 nM, 120 h); negative=synergistic, positive=antagonistic
Method in brief: as §1

NCIH460 = NCIH460 (lung); concentration series of the labelled inhibitor + fixed concentration of IMT (3S)-1-[(2R)-2-[4-(2-chloro-4-fluoro-phenyl)-2-oxo-chromen-7-yl]oxypropanoyl]piperidine-3-carboxylic acid (Table 3: 40 nM, 120 h); negative=synergistic, positive=antagonistic
Method in brief: as §1

GRANTA-519 = GRANTA-519 (hematological); concentration series of the labelled inhibitor + fixed concentration of IMT (3S)-1-[(2R)-2-[4-(2-chloro-4-fluoro-phenyl)-2-oxo-chromen-7-yl]oxypropanoyl]piperidine-3-carboxylic acid (Table 3: 40 nM, 120 h); negative=synergistic, positive=antagonistic
Method in brief: as §1

CALU6 = CALU6 (lung); concentration series of the labelled inhibitor + fixed concentration of IMT (3S)-1-[(2R)-2-[4-(2-chloro-4-fluoro-phenyl)-2-oxo-chromen-7-yl]oxypropanoyl]piperidine-3-carboxylic acid (Table 3: 40 nM, 120 h); negative=synergistic, positive=antagonistic
Method in brief: as §1

U2OS = U2OS (bone); concentration series of the labelled inhibitor + fixed concentration of IMT (3S)-1-[(2R)-2-[4-(2-chloro-4-fluoro-phenyl)-2-oxo-chromen-7-yl]oxypropanoyl]piperidine-3-carboxylic acid (Table 3: 40 nM, 120 h); negative=synergistic, positive=antagonistic
Method in brief: as §1

LOVO = LOVO (colon); concentration series of the labelled inhibitor + fixed concentration of IMT (3S)-1-[(2R)-2-[4-(2-chloro-4-fluoro-phenyl)-2-oxo-chromen-7-yl]oxypropanoyl]piperidine-3-carboxylic acid (Table 3: 40 nM, 120 h); negative=synergistic, positive=antagonistic
Method in brief: as §1

A375 = A375 (skin); concentration series of the labelled inhibitor + fixed concentration of IMT (3S)-1-[(2R)-2-[4-(2-chloro-4-fluoro-phenyl)-2-oxo-chromen-7-yl]oxypropanoyl]piperidine-3-carboxylic acid (Table 3: 40 nM, 120 h); negative=synergistic, positive=antagonistic
Method in brief: as §1

HCT116 = HCT116 (colon); concentration series of the labelled inhibitor + fixed concentration of IMT (3S)-1-[(2R)-2-[4-(2-chloro-4-fluoro-phenyl)-2-oxo-chromen-7-yl]oxypropanoyl]piperidine-3-carboxylic acid (Table 3: 40 nM, 120 h); negative=synergistic, positive=antagonistic
Method in brief: as §1

SMILES | difference between the calculated combinatorial index (BLISS) and the observed combinatorial effect (MIAPACA2) | difference between the calculated combinatorial index (BLISS) and the observed combinatorial effect (HEPG2) | difference between the calculated combinatorial index (BLISS) and the observed combinatorial effect (A549) | difference between the calculated combinatorial index (BLISS) and the observed combinatorial effect (MHHES1) | difference between the calculated combinatorial index (BLISS) and the observed combinatorial effect (PANC1) | difference between the calculated combinatorial index (BLISS) and the observed combinatorial effect (SKOV3) | difference between the calculated combinatorial index (BLISS) and the observed combinatorial effect (A673) | difference between the calculated combinatorial index (BLISS) and the observed combinatorial effect (U87MG) | difference between the calculated combinatorial index (BLISS) and the observed combinatorial effect (NCIH460) | difference between the calculated combinatorial index (BLISS) and the observed combinatorial effect (GRANTA-519) | difference between the calculated combinatorial index (BLISS) and the observed combinatorial effect (CALU6) | difference between the calculated combinatorial index (BLISS) and the observed combinatorial effect (U2OS) | difference between the calculated combinatorial index (BLISS) and the observed combinatorial effect (LOVO) | difference between the calculated combinatorial index (BLISS) and the observed combinatorial effect (A375) | difference between the calculated combinatorial index (BLISS) and the observed combinatorial effect (HCT116)
O=C(NOC[C@H](O)CO)c1ccc(F)c(F)c1Nc1ccc(I)cc1F [PD 0325901, (R)—N-(2,3-dihydroxypropoxy)-3,4-difluoro-2-((2-fluoro-4-iodophenyl)amino)benzamide] | 0.0500 | 0.0334 | −0.0245 | 0.0437 | 0.1000 | −0.0555 | 0.0281 | 0.0604 | 0.0200 | 0.0420 | 0.0809 | 0.0014 | −0.0229 | 0.0418 | −0.0042
CC(C)(C)c1nc(-c2cccc(NS(=O)(=O)c3c(F)cccc3F)c2F)c(-c2ccnc(N)n2)s1 [Dabrafenib] | 0.0508 | −0.1427 | −0.0892 | −0.0230 | 0.0029 | 0.0282 | −0.0146 | 0.0044 | −0.0275 | −0.0357 | −0.0342 | −0.0418 | −0.0384 | 0.0337 | 0.0411
CS(=O)(=O)N1CCN(Cc2cc3nc(-c4cccc5[nH]ncc45)nc(N4CCOCC4)c3s2)CC1 [GDC-0941, 2-(1H-Indazol-4-yl)-6-[[4-(methylsulfonyl)-1-piperazinyl]methyl]-4-(4-morpholinyl)thieno[3,2-d]pyrimidine] | 0.0516 | −0.0006 | 0.0023 |  | −0.0128 | 0.0556 | 0.0099 | 0.1078 | −0.0178 | 0.0647 | −0.0406 | 0.0451 | −0.0539 | −0.0654 | −0.0464
COc1c(OCCCN2CCOCC2)ccc2c1N=C(NC(=O)c1cnc(N)nc1)N1CCN=C21 [BAY 80-6946, 2-Amino-N-{7-methoxy-8-[3-(4-morpholinyl)propoxy]-2,3-dihydroimidazo[1,2-c]quinazolin-5-yl}-5-pyrimidinecarboxamide] | 0.0574 | −0.0273 | 0.0159 |  | 0.0174 | 0.0112 | 0.0259 | 0.0243 | −0.0473 | 0.0631 | 0.0374 | 0.0017 | −0.0178 | −0.0033 | −0.0195
C[C@H](Nc1ncnc2nc[nH]c12)c1cc2cccc(Cl)c2c(=O)n1-c1ccccc1 [Duvelisib] | −0.0183 | −0.0318 | −0.0092 |  | −0.0096 | 0.0398 | 0.0570 | 0.0433 | −0.0651 | 0.0770 | 0.0342 | −0.0126 | −0.0219 | −0.0153 | −0.0213
